Source: paper PMC6235536 (Science Advances, 2018)
Values belong to the compound of their own block, whether it stands above or below them. Residues, ends and D or L forms follow the SMILES beside them.

Legend:
[1] = molecular target: LptA-His6 (E. coli) (UniProt P0ADV1); experiment: fluorescence polarisation
[2] = system: E. coli; settings: IM or OM of E. coli; cited from earlier work
[3] = molecular target: LptA labeled with DyLight650 (E. coli) (UniProt P0ADV1); experiment: MST
[4] = system: Gram-negative strains; settings: all the Gram-negative strains tested; cited from earlier work

- Kd [1]: 12 nM
Compound: thanatin-BDP-FL (peptide)

Compound: CC[C@H](C)CCCCC(=O)N[C@@H](CCN)C(=O)N[C@H](C(=O)N[C@@H](CCN)C(=O)N[C@H]1CCNC(=O)[C@H]([C@@H](C)O)NC(=O)[C@H](CCN)NC(=O)[C@H](CCN)NC(=O)[C@H](CC(C)C)NC(=O)[C@@H](CC(C)C)NC(=O)[C@H](CCN)NC1=O)[C@@H](C)O [Colistin] (HELM PEPTIDE1{[CC[C@H](C)CCCCC(=O)[*:2]].[Dab].T.[Dab].[Dab].[Dab].[dL].L.[Dab].[Dab].T}$PEPTIDE1,PEPTIDE1,5:R3-11:R2$$$V2.0; N-terminus assumed; bridges inferred)
- membrane permeabilization by other cationic antimicrobial peptides [2]: unlike what is seen with some other cationic antimicrobial peptides

- Kd [3]: 20 nM
Compound: thanatin (peptide)

Compound: D-thanatin: enantiomeric form of thanatin (comprising all D-amino acids)
- activity of enantiomeric form [4]: loses much of its activity

Compound: polymyxin B
- membrane permeabilization by other cationic antimicrobial peptides [2]: unlike what is seen with some other cationic antimicrobial peptides
